In paper PMC7570544, “Biological Activities and ADMET-Related Properties of Novel Set of Cinnamanilides” (Molecules, 2020):
≈ marks a conversion by molar mass, not a printed value. Where “and” joins values, the source holds several entries; their conditions need not be identical. Identical values can stand only once.

tested on: Staphylococcus aureus ATCC 29213; assay: In vitro antibacterial evaluation, broth microdilution MIC, reference strain; format: cell-based; details: S. aureus ATCC 29213

| SMILES | MIC |
| --- | --- |
| O=C(/C=C/c1ccccc1)Nc1ccc(C(F)(F)F)c(F)c1 [Compound 10, (2E)-N-[3-Fluoro-4-(trifluoromethyl)phenyl]-3-phenylprop-2-enamide] | 25.9 µM (≈ 8.01 µg/mL) |

same assay, conditions: Staphylococcus aureus, ATCC29213; S. aureus ATCC 29213

| SMILES | MIC |
| --- | --- |
| O=C(/C=C/c1ccccc1)Nc1ccc(C(F)(F)F)c(F)c1 [Compound 10, (2E)-N-[3-Fluoro-4-(trifluoromethyl)phenyl]-3-phenylprop-2-enamide] | 8 µg/mL and 25.9 µM |
| O=C(/C=C/c1ccccc1)Nc1c(Br)cc(F)c(Cl)c1Br [Compound 20, (2E)-N-(2,6-Dibromo-3-chloro-4-fluorophenyl)-3-phenylprop-2-enamide] | > 595 µM |

tested on: methicillin-resistant Staphylococcus aureus (MRSA) 63718; assay: In vitro antibacterial evaluation, broth microdilution MIC, MRSA isolate 63718; format: cell-based; details: clinical isolate MRSA 63718

| SMILES | MIC |
| --- | --- |
| O=C(/C=C/c1ccccc1)Nc1ccc(C(F)(F)F)c(F)c1 [Compound 10, (2E)-N-[3-Fluoro-4-(trifluoromethyl)phenyl]-3-phenylprop-2-enamide] | 25.9 µM (≈ 8.01 µg/mL) |
| O=C(/C=C/c1ccccc1)Nc1c(Br)cc(F)c(Cl)c1Br [Compound 20, (2E)-N-(2,6-Dibromo-3-chloro-4-fluorophenyl)-3-phenylprop-2-enamide] | > 595 µM |

tested on: methicillin-resistant Staphylococcus aureus (MRSA) SA 630; assay: In vitro antibacterial evaluation, broth microdilution MIC, MRSA isolate SA 630; format: cell-based; details: clinical isolate MRSA SA 630

| SMILES | MIC |
| --- | --- |
| O=C(/C=C/c1ccccc1)Nc1ccc(C(F)(F)F)c(F)c1 [Compound 10, (2E)-N-[3-Fluoro-4-(trifluoromethyl)phenyl]-3-phenylprop-2-enamide] | 12.9 µM (≈ 3.99 µg/mL) |
| O=C(/C=C/c1ccccc1)Nc1c(Br)cc(F)c(Cl)c1Br [Compound 20, (2E)-N-(2,6-Dibromo-3-chloro-4-fluorophenyl)-3-phenylprop-2-enamide] | > 595 µM |

tested on: Mycobacterium tuberculosis H37Ra/ATCC 25177; assay: In vitro antimycobacterial evaluation; format: cell-based; details: M. tuberculosis H37Ra
Description: Isoniazid (Sigma) was used as the standard.

| SMILES | MIC |
| --- | --- |
| O=C(/C=C/c1ccccc1)Nc1ccc(C(F)(F)F)c(F)c1 [Compound 10, (2E)-N-[3-Fluoro-4-(trifluoromethyl)phenyl]-3-phenylprop-2-enamide] | > 414 µM |
| O=C(/C=C/c1ccccc1)Nc1c(Br)cc(F)c(Cl)c1Br [Compound 20, (2E)-N-(2,6-Dibromo-3-chloro-4-fluorophenyl)-3-phenylprop-2-enamide] | > 298 µM |

tested on: THP1-Blue™ NF-κB cell line; assay: In vitro cell viability assay (WST-1); format: cell-based; details: Homo sapiens; THP1-Blue NF-κB cells, 24 h incubation, WST-1, mean ± SEM, n = 6; read-out: Tox IC50 ± SEM
Procedure: The cytotoxic effect of the tested compounds was specified on THP1-Blue™ NF-κB cell line (Invivogen; San Diego, CA, USA), as described previously. […] The final concentration of DMSO was 0.1% (v/v) in each well. The viability analysis was performed after 24 h incubation with the tested substances using the WST-1 Cell Proliferation Reagent kit (Roche Diagnostics, Basel, Switzerland) according to the manufacturer’s manual. […] The IC50 values were calculated by four-parameter logistic (4PL) analysis from obtained viability curves by GraphPad Prism 8.0.1 (San Diego, CA, USA) software.

| SMILES | IC50 |
| --- | --- |
| O=C(/C=C/c1ccccc1)Nc1ccc(C(F)(F)F)c(F)c1 [Compound 10, (2E)-N-[3-Fluoro-4-(trifluoromethyl)phenyl]-3-phenylprop-2-enamide] | > 20 µM |
| O=C(/C=C/c1ccccc1)Nc1c(Br)cc(F)c(Cl)c1Br [Compound 20, (2E)-N-(2,6-Dibromo-3-chloro-4-fluorophenyl)-3-phenylprop-2-enamide] | > 20 µM |

tested on: NF-κB in THP1-Blue™ NF-κB cells; assay: Determination of NF-κB activity after LPS stimulation (Quanti-Blue); format: cell-based, human; details: 1 µM compound, 1 h pretreatment, LPS 1 µg/mL, 24 h, vs DMSO group
Procedure: To evaluate the anti-inflammatory potential of novel compounds, their ability to attenuate the lipopolysaccharide (LPS)-activated pro-inflammatory transcription nuclear factor (NF)-κB was measured as was described previously. Briefly, THP1-Blue™ NF-κB cells were pretreated by tested compounds dissolved in DMSO in the non-toxic concentration 1 µM for 1 h. After LPS (1 µg/mL) stimulation, the NF-κB activity was evaluated by Quanti-Blue medium (Invivogen) according to the manufacturer’s instructions. The results from 3 independent experiments performed in triplicate (n = 9) were analyzed by GraphPad Prism 8.0.1 software. The outlaying values were excluded by ROUT algorithms (Q = 5%).
Figure 1 Effect of tested compounds on activity of transcription factor NF-κB. […] Then, lipopolysaccharide (LPS) 1 µg/mL was added to trigger the NF-κB activation. The activity of NF-κB was measured 24 h after LPS stimulation using QuantiBlue™ assay. The graph represents mean ± SEM (n = 9). […] Groups were compared with the help of the one-way ANOVA test followed by Fisher’s LSD multiple comparison test. * indicates statistical significance (p < 0.05) to DMSO group; ** indicates statistical significance (p < 0.01) to DMSO group; *** indicates statistical significance (p < 0.001) to DMSO group; **** indicates statistical significance (p < 0.0001) to DMSO group. CA—cinnamic acid.

| SMILES | increase of NF-κB activity | decrease of NF-κB activity |
| --- | --- | --- |
| O=C(/C=C/c1ccccc1)Nc1ccc(C(F)(F)F)c(F)c1 [Compound 10, (2E)-N-[3-Fluoro-4-(trifluoromethyl)phenyl]-3-phenylprop-2-enamide] | 10–15% | – |
| O=C(/C=C/c1ccccc1)Nc1c(Br)cc(F)c(Cl)c1Br [Compound 20, (2E)-N-(2,6-Dibromo-3-chloro-4-fluorophenyl)-3-phenylprop-2-enamide] | – | approximately 9% |

same assay, conditions: 1 µM compound, LPS 1 µg/mL

| SMILES | anti-inflammatory potential (LPS-induced NF-κB activation), in words |
| --- | --- |
| O=C(/C=C/c1ccccc1)Nc1c(Br)cc(F)c(Cl)c1Br [Compound 20, (2E)-N-(2,6-Dibromo-3-chloro-4-fluorophenyl)-3-phenylprop-2-enamide] | more potent than the parental cinnamic acid |

tested on: not listed separately; assay: Lipophilicity determination by RP-TLC; format: physicochemical; set-up: key to RM (MeOH:H2O): RM = log(1/RF - 1), from RP-18 TLC; details: 72:28 MeOH:H2O
Procedure: RM values were determined from the RP-18 TLC measurements. […] The volatiles were carefully evaporated, and the plate was developed by MeOH (100%) or MeOH: H2O-HPLC (72:28 v/v) or MeOH: NaOAc buffer, pH 7.4 (72:28 v/v). After drying, the spots were visualized under UV (λ = 365 nm). RM data were obtained from equation: RM = log(1/RF-1). Each experiment was repeated three times.

| SMILES | RM (MeOH:H2O) |
| --- | --- |
| O=C(/C=C/c1ccccc1)Nc1ccc(C(F)(F)F)c(F)c1 [Compound 10, (2E)-N-[3-Fluoro-4-(trifluoromethyl)phenyl]-3-phenylprop-2-enamide] | 0.7923 |
| O=C(/C=C/c1ccccc1)Nc1c(Br)cc(F)c(Cl)c1Br [Compound 20, (2E)-N-(2,6-Dibromo-3-chloro-4-fluorophenyl)-3-phenylprop-2-enamide] | 0.4320 |

same assay, conditions: 72:28 MeOH:NaOAc buffer (pH 7.4)

| SMILES | RM (pH 7.4) |
| --- | --- |
| O=C(/C=C/c1ccccc1)Nc1ccc(C(F)(F)F)c(F)c1 [Compound 10, (2E)-N-[3-Fluoro-4-(trifluoromethyl)phenyl]-3-phenylprop-2-enamide] | 0.5960 |
| O=C(/C=C/c1ccccc1)Nc1c(Br)cc(F)c(Cl)c1Br [Compound 20, (2E)-N-(2,6-Dibromo-3-chloro-4-fluorophenyl)-3-phenylprop-2-enamide] | 0.4138 |

same assay, conditions: 100% MeOH

| SMILES | RM (100% MeOH) |
| --- | --- |
| O=C(/C=C/c1ccccc1)Nc1ccc(C(F)(F)F)c(F)c1 [Compound 10, (2E)-N-[3-Fluoro-4-(trifluoromethyl)phenyl]-3-phenylprop-2-enamide] | −0.5032 |
| O=C(/C=C/c1ccccc1)Nc1c(Br)cc(F)c(Cl)c1Br [Compound 20, (2E)-N-(2,6-Dibromo-3-chloro-4-fluorophenyl)-3-phenylprop-2-enamide] | −0.5541 |

tested on: not given; assay: not given; details: RP-HPLC, 72:28 MeOH:H2O

| SMILES | Logk |
| --- | --- |
| O=C(/C=C/c1ccccc1)Nc1ccc(C(F)(F)F)c(F)c1 [Compound 10, (2E)-N-[3-Fluoro-4-(trifluoromethyl)phenyl]-3-phenylprop-2-enamide] | 0.5789 |
| O=C(/C=C/c1ccccc1)Nc1c(Br)cc(F)c(Cl)c1Br [Compound 20, (2E)-N-(2,6-Dibromo-3-chloro-4-fluorophenyl)-3-phenylprop-2-enamide] | 0.3139 |

tested on: not listed separately; assay: physchem; details: pH 6.5

| SMILES | chromatographic logD |
| --- | --- |
| O=C(/C=C/c1ccccc1)Nc1ccc(C(F)(F)F)c(F)c1 [Compound 10, (2E)-N-[3-Fluoro-4-(trifluoromethyl)phenyl]-3-phenylprop-2-enamide] | 0.61 |
| O=C(/C=C/c1ccccc1)Nc1c(Br)cc(F)c(Cl)c1Br [Compound 20, (2E)-N-(2,6-Dibromo-3-chloro-4-fluorophenyl)-3-phenylprop-2-enamide] | 0.37 |

same assay, conditions: pH 7.4

| SMILES | chromatographic logD |
| --- | --- |
| O=C(/C=C/c1ccccc1)Nc1ccc(C(F)(F)F)c(F)c1 [Compound 10, (2E)-N-[3-Fluoro-4-(trifluoromethyl)phenyl]-3-phenylprop-2-enamide] | 0.633 |
| O=C(/C=C/c1ccccc1)Nc1c(Br)cc(F)c(Cl)c1Br [Compound 20, (2E)-N-(2,6-Dibromo-3-chloro-4-fluorophenyl)-3-phenylprop-2-enamide] | 0.392 |

tested on: S. aureus ATCC 29213; assay: MTT assay of bacterial viability; details: Staphylococcus aureus, ATCC29213, read-out: viability of S. aureus ATCC 29213 (MTT)

| SMILES | viability at 25.9 µM |
| --- | --- |
| O=C(/C=C/c1ccccc1)Nc1ccc(C(F)(F)F)c(F)c1 [Compound 10, (2E)-N-[3-Fluoro-4-(trifluoromethyl)phenyl]-3-phenylprop-2-enamide] | 13.4 ± 0.1% |

tested on: S. aureus and MRSA isolates; assay: Minimum bactericidal concentration (MBC) by subcultivation; details: S. aureus and MRSA isolates, compared with MIC

| SMILES | MBC |
| --- | --- |
| O=C(/C=C/c1ccccc1)Nc1ccc(C(F)(F)F)c(F)c1 [Compound 10, (2E)-N-[3-Fluoro-4-(trifluoromethyl)phenyl]-3-phenylprop-2-enamide] | equal to the MIC values |

same assay, conditions: bactericidal if MBC/MIC ≤4

| SMILES | bacteriostatic/bactericidal classification |
| --- | --- |
| O=C(/C=C/c1ccccc1)Nc1ccc(C(F)(F)F)c(F)c1 [Compound 10, (2E)-N-[3-Fluoro-4-(trifluoromethyl)phenyl]-3-phenylprop-2-enamide] | bactericidal |
